# Test results as given in patent US20050054620A1, “Paricalcitol as a chemotherapeutic agent” (priority 2003, published 2005).
# Assays:
# NCI-H929 cells = assay: Western blot of cell lysates; format: cell-based, human
# Protocol: Western blot analysis was used to determine the levels of proteins involved in cell cycle and differentiation. […] After centrifugation at 15,000×g for 15 min at 4° C., the suspension was collected. Protein concentrations were quantitated using the Bio-Rad assay (Bio-Rad Labolatories, Hercules, Calif.). […] The blots were developed using the Supersignal West Pico Chemiluminescent Substrate Kit (Pierce, Rockford, Ill.). In FIG. 3C, NCI-H929 cells were treated with either paricalcitol (10^−7M) or 1,25(OH)2D3 (10^−7M) and cell lysates were prepared after 72 hrs. Cell lysates were used for Western blot analysis and probed sequentially with antibodies to p27KIP1, Bcl-2 and Bax. Control cells were treated with vehicle alone. Amount of protein was normalized by comparison to the amount of GAPDH. […] The Bcl-2 and Bax antibodies were obtained from Santa Cruz Biotechnology Inc., Santa Cruz, Calif.
# [1] = test system: HCT116 colon cancer cells; assay: MTT assay; format: cell-based, human; details: 10^−7M, 96 hrs
# Protocol: (§1) HT-29, SW837, SW480 and HCT116 colon cancer cells were treated for 96 hrs with either paricalcitol (10^−7M) 1,25(OH)2D3 (10^−7M) or diluant (control). Growth (% of control) was measured by MTT assay. Results represent the mean±SD of three independent experiments with triplicate dishes. […] were incubated in culture medium for 96 hr in 96 well-plates and […] of MTT solution was added.
# HT-29 colon cancer cells = assay: MTT assay; format: cell-based, human; details: 10^−7M, 96 hrs
# Protocol: as §1
# SW480 colon cancer cells = assay: MTT assay; format: cell-based, human; details: 10^−7M, 96 hrs
# Protocol: as §1
# SW837 colon cancer cells = assay: MTT assay; format: cell-based, human; details: 10^−7M, 96 hrs
# Protocol: as §1
# 24-hydroxylase mRNA = assay: RT-PCR of 24-hydroxylase mRNA, spleen mononuclear cells of wild type mice; format: cell-based; details: 10^−8 M
# Protocol: In FIG. 6B, HT-29 colon cancer cells were treated with paricalcitol (10^−7M) for 0, 6, 12 or 24 hrs and RNA was harvested. Expression of 24 hydroxylase mRNA was analysed by RT-PCR. The amounts of mRNA were normalized by comparison to 18S RNA. In FIG. 6C, mononuclear cells extracted from spleens of either wild type or VDR knock-out mice were treated with paricalcitol (10^−8M) for either 12 or 24 hrs, and RNA was harvested. Expression of 24 hydroxylase mRNA was analysed by RT-PCR. The amounts of mRNA were normalized by comparison to 18S RNA. For the PCR analysis, RNA extraction and reverse transcription were done by TRIzole (Invitrogen, Carlsbad, Calif.) and reverse transcriptase (Promega, Madison, Wis.). A twenty-microliter volume of cDNA was prepared from 1 μg of RNA. cDNAs were amplified by PCR with specific primers for 24-hydroxylase and 18S. The cycle number was 25 for 18S and 32 for 24-hydroxylase. […] The VDR KO Mouse and Colony-Forming Assay was performed as follows. VDR KO mice were generated and genotypes were determined by Southern Blot Analysis as described previously (O'Kelly et al., supra, 2002). For experiments using VDR KO mice, their wild-type (WT) littermates were used as controls. Mice were killed by cervical neck dislocation. […] Colonies were counted after 2 weeks. […]
# [2] = test system: mononuclear bone marrow cells from wild type (WT) mice; assay: Colony-forming assay in methylcellulose, wild type mice; format: cell-based; details: 10^−8 M
# Excerpt: In FIG. 6D, colony formation by mononuclear bone marrow cells from VDR knock-out (VDR-KO) and wild type (WT) mice is shown. Mononuclear cells were obtained from femoral bone marrow plugs and grown in methylcellulose culture media with either paricalcitol (10^−8M) or diluant. Colonies were counted on day 10 of culture. The number of total colonies (average) were 87 (control) and 66 (paricalcitol 10^−8M) in wild type mice, and 110 (control) and 122 (paricalcitol 10^−8M) in VDR-KO mice. The percentage of macrophage, granulocyte and mixed granulocyte/macrophage colonies are shown. Triplicate wells for each mouse and a total of three KO and three WT mice were studied. G, granulocyte colonies; G/M mixed granulocyte/macrophage colonies; M, macrophage colonies.
# The VDR KO Mouse and Colony-Forming Assay was performed as follows. VDR KO mice were generated and genotypes were determined by Southern Blot Analysis as described previously (O'Kelly et al., supra, 2002). For experiments using VDR KO mice, their wild-type (WT) littermates were used as controls. Mice were killed by cervical neck dislocation. Bone marrow was flushed out of isolated femurs with (a-MEM; Gibco BRL, Grand Island, N.Y., USA) including 10% FCS using a 26-gauge needle. Isolated spleens were injected with DMEM (Gibco BRL) plus 10% FCS and crushed with forceps to release cells. Mononuclear cells from bone marrow or spleen were separated by Ficoll-Hypaque density centrifugation (Amersham Pharmacia, Uppsala, Sweden). Resuspended mononuclear bone marrow cells (2×10^4 cells/ml) and growth factors were added 1:10 to methylcellulose medium M3234 (StemCell Technologies Inc., Vancouver, British Columbia, Canada) to yield a final concentration of 1% methylcellulose, 30% FCS, 1% BSA, 10^-4M mercaptoethanol, and 2 mM L-glutamine as described previously (19). Cells were plated in six-well plates in a volume of 1 ml and incubated at 37° C. in a humidified atmosphere containing 5% CO2. Colonies were counted after 2 weeks. Colony type was established by morphology; and to ensure accurate determination, representative colonies were plucked from the plates, centrifuged onto slides, stained with Wright-Giemsa stain and examined by light microscopy.
# [3] = humans, cited from earlier work
compound,measurement,setting,value
"C[C@H](/C=C/[C@H](C)C(C)(C)O)[C@H]1CC[C@H]2/C(=C/C=C3C[C@@H](O)C[C@H](O)C3)CCC[C@]12C [paricalcitol, 19-nor-1,25, (OH)2D3]",expression of Bcl-2 and p27^KIP1,"NCI-H929 cells; 0.01 μM each, 3 days",down-regulated
same,decrease of Bcl-2 protein level,"NCI-H929 cells; 10^−7M, 72 hrs",about 40%
same,effect on levels of Bax,"NCI-H929 cells; 10^−7M, 72 hrs",did not affect
same,effect on levels of p21WAF1,"NCI-H929 cells; 10^−7M, 96 hrs",little effect
same,increase of p27KIP1 expression,"NCI-H929 cells; 10^−7M, 96 hrs",about 3 fold
same,growth by MTT assay,[1],either only slightly sensitive or resistant
same,growth by MTT assay,HT-29 colon cancer cells,sensitive
same,growth by MTT assay,SW480 colon cancer cells,either only slightly sensitive or resistant
same,growth by MTT assay,SW837 colon cancer cells,sensitive
same,time within which 24-hydroxylase mRNA expression was induced,24-hydroxylase mRNA,≤ 12 h
same,percentage of granulocyte colonies,[2]; control 23±4%,6±3%
same,percentage of macrophage colonies,[2]; control 32±4%,69±2%
same,percentage of mixed colonies,[2]; control 43±7%,25±5%
same,number of total colonies (average),[2]; control 87,66
same,dose safely given,[3],up to 16.8 mg
same,hypercalcemia,"[3]; compared with 1,25(OH)2D3",less likely to cause hypercalcemia
